Laboratory results taken from patent US12139520B2 (priority 2020, dated 2024).
Numbered stars: 1 amine (or outer) side, 2 acyl side, 3 side chain; on linkers, the order of the positions; unused ones are H or OH. Bridge positions count the residues as written; N and C are the ends. Square brackets hold non-standard residues; d marks the D form. Peptide text beside a SMILES is read from it. * marks the point of attachment. C20 diacid = O=C(O)CCCCCCCCCCCCCCCCCCC(=O)*; γGlu = O=C(O)[C@H](CCC(=O)[*:2])N[*:1]; Hyp = O=C(O)[C@@H]1C[C@@H](O)CN1; Cit = NC(=O)NCCC[C@H](N)C(=O)O

What was measured:
hAM1 receptor = hAM1 receptor (Homo sapiens, UniProt O60895+Q16602); experiment: cAMP assay for in vitro receptor activation, hAM1-R; format: cell-based; conditions: cAMP assay, hAM1 receptor; read-out: hAM1R EC50
Chain of hAM1 receptor (Q16602 23-461): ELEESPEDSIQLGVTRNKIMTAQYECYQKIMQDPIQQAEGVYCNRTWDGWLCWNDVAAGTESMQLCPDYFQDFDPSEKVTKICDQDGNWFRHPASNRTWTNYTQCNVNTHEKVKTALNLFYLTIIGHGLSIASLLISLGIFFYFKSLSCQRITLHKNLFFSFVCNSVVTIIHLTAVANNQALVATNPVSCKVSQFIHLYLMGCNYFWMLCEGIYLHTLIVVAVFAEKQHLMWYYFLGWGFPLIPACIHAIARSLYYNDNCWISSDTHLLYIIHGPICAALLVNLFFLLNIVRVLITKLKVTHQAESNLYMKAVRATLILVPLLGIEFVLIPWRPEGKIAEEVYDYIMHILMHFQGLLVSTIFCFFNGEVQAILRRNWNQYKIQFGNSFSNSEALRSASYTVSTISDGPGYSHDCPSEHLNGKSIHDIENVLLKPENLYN
Chain of hAM1 receptor (O60895 43-175 partner): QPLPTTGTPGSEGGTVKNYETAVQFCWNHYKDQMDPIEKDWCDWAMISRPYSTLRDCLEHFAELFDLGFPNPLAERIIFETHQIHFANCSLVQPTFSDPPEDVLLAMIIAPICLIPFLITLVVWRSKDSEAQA
Procedure, shortened: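 Monoclonal stable hAM1-overexpressing cells, thawed from frozen stock; 8000 cells/well in DPBS + 0.05% casein + 0.5 mM IBMX; read-out cAMP.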

[1] = Physical stability of peptide analogues (Thioflavin T fibrillation); format: physicochemical; conditions: maximum ThT signal normalized between hAMY maximum and buffer background; 40° C., shaking, four days; pH 7 per table title
Procedure, shortened: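 Maximum ThT emission at 480 nm, after LOESS smoothing, is given as percent of the span from buffer background to hAMY. Conditions: 50 mM buffer at pH 4 or 7, 4 μM dye, 40 °C, repeated shaking, readings every 10 min for four days.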

hAMY3 receptor = target: T1, hAMY3 receptor (Homo sapiens, UniProt O60896+P30988); experiment: cAMP assay for in vitro receptor activation, hAMY3-R; format: cell-based; conditions: cAMP assay, hAMY3 receptor; read-out: hAMY3R EC50
T1 sequence (P30988 25-474): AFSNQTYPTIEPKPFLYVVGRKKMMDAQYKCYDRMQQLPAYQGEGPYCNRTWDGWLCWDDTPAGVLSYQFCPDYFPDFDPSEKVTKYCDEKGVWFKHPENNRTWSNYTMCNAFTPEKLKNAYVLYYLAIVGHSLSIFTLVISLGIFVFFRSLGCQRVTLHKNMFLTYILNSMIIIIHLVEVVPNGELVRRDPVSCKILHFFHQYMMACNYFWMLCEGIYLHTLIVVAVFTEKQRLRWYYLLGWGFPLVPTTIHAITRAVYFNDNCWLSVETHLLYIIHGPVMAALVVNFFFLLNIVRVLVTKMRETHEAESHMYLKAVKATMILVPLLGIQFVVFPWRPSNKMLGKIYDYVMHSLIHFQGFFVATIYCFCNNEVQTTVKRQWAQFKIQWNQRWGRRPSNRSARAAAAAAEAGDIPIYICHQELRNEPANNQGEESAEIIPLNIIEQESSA
T1 sequence (O60896 24-148 partner): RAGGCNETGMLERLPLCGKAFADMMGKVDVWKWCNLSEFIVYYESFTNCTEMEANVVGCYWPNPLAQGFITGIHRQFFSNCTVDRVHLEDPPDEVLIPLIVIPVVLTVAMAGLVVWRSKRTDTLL
Procedure, shortened: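 Read-out is TR-FRET cAMP signal, recorded one hour after reagent addition, following 30 min room-temperature stimulation of stable hAMY3 cells with graded compound doses in casein/IBMX (0.5 mM) buffer.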

CC[C@H](C)[C@H](NC(=O)[C@H](CCC(N)=O)NC(=O)[C@H](Cc1c[nH]cn1)NC(=O)[C@H](C)NC(=O)[C@H](CC(C)C)NC(=O)[C@H](CCCNC(=N)N)NC(=O)[C@H](CCC(N)=O)NC(=O)[C@@H](NC(=O)[C@@H](NC(=O)[C@@H]1CSSC[C@H](NC(=O)CN)C(=O)N[C@@H](CCCNC(=N)N)C(=O)N[C@@H]([C@@H](C)O)C(=O)NCC(=O)N[C@@H]([C@@H](C)O)C(=O)N1)[C@@H](C)O)C(C)C)C(=O)N[C@@H](Cc1ccc(O)cc1)C(=O)N[C@@H](CCC(N)=O)C(=O)N[C@@H](Cc1ccccc1)C(=O)N[C@H](C(=O)N[C@@H](CC(=O)O)C(=O)N[C@@H](CCCCN)C(=O)N[C@@H](Cc1ccccc1)C(=O)N[C@@H](CCCCN)C(=O)N[C@@H](CC(=O)O)C(=O)N[C@@H](CC(N)=O)C(=O)N[C@H](C(=O)N[C@@H](C)C(=O)N1CCC[C@H]1C(=O)N[C@@H](CCCNC(=N)N)C(=O)N[C@@H](CO)C(=O)N[C@@H](CCCCN)C(=O)N[C@H](C(=O)N[C@@H](CO)C(=O)N1CCC[C@H]1C(=O)N[C@@H](CCC(N)=O)C(=O)N[C@@H](C)C(=O)N1C[C@H](O)C[C@H]1C(N)=O)[C@@H](C)CC)C(C)C)[C@@H](C)O [compound 218] (H-GCRTGTCTVQRLAHQIYQFTDKFKDNVAPRSKISPQA[Hyp]-NH2; disulfide 2-7; N-terminus assumed)
EC50 (hAM1 receptor): > 5000 nM
Max ThT signal (%) [1]: 4.500%

CC[C@H](C)[C@H](NC(=O)[C@H](CCC(N)=O)NC(=O)[C@H](Cc1c[nH]cn1)NC(=O)[C@H](C)NC(=O)[C@H](CC(C)C)NC(=O)[C@H](CCCNC(=N)N)NC(=O)[C@H](CCC(N)=O)NC(=O)[C@@H](NC(=O)[C@@H](NC(=O)[C@@H]1CSSC[C@H](NC(=O)CN)C(=O)N[C@@H](CCCNC(=N)N)C(=O)N[C@@H]([C@@H](C)O)C(=O)NCC(=O)N[C@@H]([C@@H](C)O)C(=O)N1)[C@@H](C)O)C(C)C)C(=O)N[C@@H](Cc1ccc(O)cc1)C(=O)N[C@@H](CCC(N)=O)C(=O)N[C@@H](Cc1ccccc1)C(=O)N[C@H](C(=O)N[C@@H](CC(N)=O)C(=O)N[C@@H](CCCCN)C(=O)N[C@@H](CC(=O)O)C(=O)N[C@@H](CCCCN)C(=O)N[C@@H](CC(=O)O)C(=O)N[C@@H](CC(N)=O)C(=O)N[C@H](C(=O)N[C@@H](C)C(=O)N1CCC[C@H]1C(=O)N[C@@H](CCCNC(=N)N)C(=O)N[C@@H](CO)C(=O)N[C@@H](CCCCN)C(=O)N[C@H](C(=O)N[C@@H](CO)C(=O)N1CCC[C@H]1C(=O)N[C@@H](CCC(N)=O)C(=O)N[C@@H](CCC(N)=O)C(=O)N1C[C@H](O)C[C@H]1C(N)=O)[C@@H](C)CC)C(C)C)[C@@H](C)O [compound 232] (H-GCRTGTCTVQRLAHQIYQFTNKDKDNVAPRSKISPQQ[Hyp]-NH2; disulfide 2-7; N-terminus assumed)
EC50 (hAM1 receptor): > 5000 nM
Max ThT signal (%) [1]: 1.200%

CC[C@H](C)[C@H](NC(=O)[C@H](CCC(N)=O)NC(=O)[C@H](Cc1c[nH]cn1)NC(=O)[C@H](C)NC(=O)[C@H](CC(C)C)NC(=O)[C@H](CCCNC(=N)N)NC(=O)[C@H](CCC(N)=O)NC(=O)[C@@H](NC(=O)[C@@H](NC(=O)[C@@H]1CSSC[C@H](NC(=O)CN)C(=O)N[C@@H](CCCNC(=N)N)C(=O)N[C@@H]([C@@H](C)O)C(=O)NCC(=O)N[C@@H]([C@@H](C)O)C(=O)N1)[C@@H](C)O)C(C)C)C(=O)N[C@@H](Cc1ccc(O)cc1)C(=O)N[C@@H](CCC(N)=O)C(=O)N[C@@H](Cc1ccccc1)C(=O)N[C@H](C(=O)N[C@@H](CC(N)=O)C(=O)N[C@@H](CCCCN)C(=O)N[C@@H](CC(=O)O)C(=O)N[C@@H](CCCCN)C(=O)N[C@@H](CC(=O)O)C(=O)N[C@@H](CC(N)=O)C(=O)N[C@H](C(=O)N[C@@H](C)C(=O)N1CCC[C@H]1C(=O)N[C@@H](CCCNC(=N)N)C(=O)N[C@@H](CO)C(=O)N[C@@H](CCCCN)C(=O)N[C@H](C(=O)N[C@@H](CO)C(=O)N1CCC[C@H]1C(=O)N[C@@H](CCC(N)=O)C(=O)N[C@@H](Cc1c[nH]cn1)C(=O)N1C[C@H](O)C[C@H]1C(N)=O)[C@@H](C)CC)C(C)C)[C@@H](C)O [compound 219] (H-GCRTGTCTVQRLAHQIYQFTNKDKDNVAPRSKISPQH[Hyp]-NH2; disulfide 2-7; N-terminus assumed)
EC50 (hAM1 receptor): 4250 nM
Max ThT signal (%) [1]: 0.700%

CC[C@H](C)[C@H](NC(=O)[C@H](CCC(N)=O)NC(=O)[C@H](Cc1c[nH]cn1)NC(=O)[C@H](C)NC(=O)[C@H](CC(C)C)NC(=O)[C@H](CCCNC(=N)N)NC(=O)[C@H](CCC(N)=O)NC(=O)[C@@H](NC(=O)[C@@H](NC(=O)[C@@H]1CSSC[C@H](NC(=O)[C@H](CCCCN)NC(=O)CC[C@H](NC(=O)CCCCCCCCCCCCCCCCCCC(=O)O)C(=O)O)C(=O)N[C@@H](CC(N)=O)C(=O)N[C@@H](Cc2ccccc2)C(=O)N[C@@H](C)C(=O)N[C@@H]([C@@H](C)O)C(=O)N1)[C@@H](C)O)C(C)C)C(=O)N[C@@H](Cc1ccc(O)cc1)C(=O)N[C@@H](CCC(N)=O)C(=O)N[C@@H](Cc1ccccc1)C(=O)N[C@H](C(=O)N[C@@H](CC(=O)O)C(=O)N[C@@H](CCCCN)C(=O)N[C@@H](CC(=O)O)C(=O)N[C@@H](CCCCN)C(=O)N[C@@H](CC(=O)O)C(=O)N[C@@H](CC(N)=O)C(=O)N[C@H](C(=O)N[C@@H](C)C(=O)N1CCC[C@H]1C(=O)N[C@@H](CCCNC(=N)N)C(=O)N[C@H](C(=O)N[C@@H](CCC(=O)O)C(=O)N[C@H](C(=O)NCC(=O)N[C@@H](CO)C(=O)N[C@@H](CC(N)=O)C(=O)NCC(=O)N1C[C@H](O)C[C@H]1C(N)=O)C(C)C)[C@@H](C)O)C(C)C)[C@@H](C)O [compound 67] ({C20 diacid-γGlu}-KCNFATCTVQRLAHQIYQFTDKDKDNVAPRTEVGSNG[Hyp]-NH2; disulfide 2-7)
EC50 (hAM1 receptor): 116 nM
EC50 (hAMY3 receptor): 0.013 nM

CC[C@H](C)[C@H](NC(=O)[C@H](CCC(N)=O)NC(=O)[C@H](CCC(=O)O)NC(=O)[C@H](C)NC(=O)[C@H](CC(C)C)NC(=O)[C@H](CCCNC(N)=O)NC(=O)[C@H](CCC(N)=O)NC(=O)[C@@H](NC(=O)[C@@H](NC(=O)[C@@H]1CSSC[C@H](NC(=O)[C@H](CCCCN)NC(=O)CC[C@H](NC(=O)CCCCCCCCCCCCCCCCCCC(=O)O)C(=O)O)C(=O)N[C@@H](CC(N)=O)C(=O)N[C@@H]([C@@H](C)O)C(=O)N[C@@H](C)C(=O)N[C@@H]([C@@H](C)O)C(=O)N1)[C@@H](C)O)C(C)C)C(=O)N[C@@H](C)C(=O)N[C@@H](CCC(N)=O)C(=O)N[C@@H](Cc1ccccc1)C(=O)N[C@H](C(=O)N[C@@H](CC(=O)O)C(=O)N[C@@H](CCCCN)C(=O)N[C@@H](CC(=O)O)C(=O)N[C@@H](CCCCN)C(=O)N[C@@H](CC(=O)O)C(=O)N[C@@H](CC(N)=O)C(=O)N[C@H](C(=O)N[C@@H](C)C(=O)N1CCC[C@H]1C(=O)N1CCC[C@H]1C(=O)N[C@H](C(=O)N[C@@H](CC(N)=O)C(=O)N[C@H](C(=O)NCC(=O)N[C@@H](CO)C(=O)N[C@@H](CC(N)=O)C(=O)NCC(=O)N1C[C@H](O)C[C@H]1C(N)=O)C(C)C)[C@@H](C)O)C(C)C)[C@@H](C)O [compound 153] ({C20 diacid-γGlu}-KCNTATCTVQ[Cit]LAEQIAQFTDKDKDNVAPPTNVGSNG[Hyp]-NH2; disulfide 2-7)
EC50 (hAM1 receptor): > 5000 nM
EC50 (hAMY3 receptor): 0.041 nM

CC[C@H](C)[C@H](NC(=O)[C@H](CCC(N)=O)NC(=O)[C@H](Cc1c[nH]cn1)NC(=O)[C@H](C)NC(=O)[C@H](CC(C)C)NC(=O)[C@H](CCCNC(=N)N)NC(=O)[C@H](CCC(N)=O)NC(=O)[C@@H](NC(=O)[C@@H](NC(=O)[C@@H]1CSSC[C@H](NC(=O)[C@H](CCCCN)NC(=O)CC[C@H](NC(=O)CCCCCCCCCCCCCCCCCCC(=O)O)C(=O)O)C(=O)N[C@@H](CC(N)=O)C(=O)N[C@@H]([C@@H](C)O)C(=O)N[C@@H](C)C(=O)N[C@@H]([C@@H](C)O)C(=O)N1)[C@@H](C)O)C(C)C)C(=O)N[C@@H](C)C(=O)N[C@@H](CCC(N)=O)C(=O)N[C@@H](Cc1ccccc1)C(=O)N[C@@H](Cc1ccc(O)cc1)C(=O)N[C@@H](CC(=O)O)C(=O)N[C@@H](CCCCN)C(=O)N[C@@H](CC(=O)O)C(=O)N[C@@H](CCCCN)C(=O)N[C@@H](CC(=O)O)C(=O)N[C@@H](CC(N)=O)C(=O)N[C@H](C(=O)N[C@@H](C)C(=O)N1CCC[C@H]1C(=O)N1CCC[C@H]1C(=O)N[C@H](C(=O)N[C@@H](CC(N)=O)C(=O)N[C@H](C(=O)NCC(=O)N[C@@H](CO)C(=O)N[C@@H](CC(N)=O)C(=O)NCC(=O)N1C[C@H](O)C[C@H]1C(N)=O)C(C)C)[C@@H](C)O)C(C)C [compound 94] ({C20 diacid-γGlu}-KCNTATCTVQRLAHQIAQFYDKDKDNVAPPTNVGSNG[Hyp]-NH2; disulfide 2-7)
EC50 (hAM1 receptor): > 5000 nM
EC50 (hAMY3 receptor): 0.016 nM
